Molecules are shown by their SMILES. Activity calls are given as the source filed them. No rule for the calls is given here.

The test system of this data set is CCRIS mutagenicity, Ames/micronucleus/aberration tests. In words: CCRIS mutagenicity studies.
[1] abbreviates: Test System: AMES SALMONELLA TYPHIMURIUM, Strain/Indicator: TA98, Metabolic Activation: NONE, Method: PREINCUBATION
[2] abbreviates: Test System: AMES SALMONELLA TYPHIMURIUM, Strain/Indicator: TA98, Metabolic Activation: RAT, LIVER, S-9, AROCLOR 1254, Method: PREINCUBATION
Setting [3] is: Test System: AMES SALMONELLA TYPHIMURIUM, Strain/Indicator: TA100, Metabolic Activation: NONE, Method: PREINCUBATION
The mark [4] stands for this setting: Test System: AMES SALMONELLA TYPHIMURIUM, Strain/Indicator: TA100, Metabolic Activation: RAT, LIVER, S-9, AROCLOR 1254, Method: PREINCUBATION
[5] abbreviates: Test System: AMES SALMONELLA TYPHIMURIUM, Strain/Indicator: TA102, Metabolic Activation: NONE, Method: PREINCUBATION
Setting [6] is: Test System: AMES SALMONELLA TYPHIMURIUM, Strain/Indicator: TA102, Metabolic Activation: RAT, LIVER, S-9, AROCLOR 1254, Method: PREINCUBATION
Setting [7] is: Test System: AMES SALMONELLA TYPHIMURIUM, Strain/Indicator: TA1535, Metabolic Activation: NONE, Method: PREINCUBATION
The mark [8] stands for this setting: Test System: AMES SALMONELLA TYPHIMURIUM, Strain/Indicator: TA1537, Metabolic Activation: NONE, Method: PREINCUBATION

Consider `CC(=O)OC(C)(C)C`, for which the mutagenic call by setting is: under setting [1], “inactive; negative”; under setting [2], “inactive; negative”; under setting [3], “inactive; negative”; under setting [4], “inactive; negative”; under setting [5], “inactive; negative”; under setting [6], “inactive; negative”. Also, the mutagenic call reads like this: under setting [7], “inactive; negative”; (Test System: AMES SALMONELLA TYPHIMURIUM, Strain/Indicator: TA1535, Metabolic Activation: RAT, LIVER, S-9, AROCLOR 1254, Method: PREINCUBATION) “inactive; negative”; under setting [8], “inactive; negative”; (Test System: AMES SALMONELLA TYPHIMURIUM, Strain/Indicator: TA1537, Metabolic Activation: RAT, LIVER, S-9, AROCLOR 1254, Method: PREINCUBATION) “inactive; negative”; (Test System: E. COLI, Strain/Indicator: WP2UVRA/PKM, Metabolic Activation: NONE, Method: PREINCUBATION) “inactive; negative”; (Test System: E. COLI, Strain/Indicator: WP2UVRA/PKM, Metabolic Activation: RAT, LIVER, S-9, AROCLOR 1254, Method: PREINCUBATION) “inactive; negative”.
`CC(C)CC=O`: the mutagenic call under setting [1] was “inactive; negative”; the mutagenic call under setting [2] was “inactive; negative”; the mutagenic call under setting [3] is “inactive; negative”; the mutagenic call under setting [4] was “inactive; negative”; the mutagenic call under setting [5] was “inactive; negative”; the mutagenic call under setting [6] was “inactive; negative”.
As to `O=[N+]([O-])c1ccc2c3c(cccc13)-c1cc(O)ccc1-2`, the mutagenic call is, setting by setting: (Test System: AMES SALMONELLA TYPHIMURIUM, Strain/Indicator: TA98(1,8-DNP6), Metabolic Activation: NONE, Method: STANDARD PLATE) “inactive; negative”; (Test System: AMES SALMONELLA TYPHIMURIUM, Strain/Indicator: TA98(NR), Metabolic Activation: NONE, Method: STANDARD PLATE) “active; positive”; (Test System: AMES SALMONELLA TYPHIMURIUM, Strain/Indicator: TA98, Metabolic Activation: NONE, Method: STANDARD PLATE) “active; positive”; (Test System: AMES SALMONELLA TYPHIMURIUM, Strain/Indicator: TA98, Metabolic Activation: RAT, LIVER, S-9, AROCLOR 1254, Method: STANDARD PLATE) “active; positive”; (Test System: AMES SALMONELLA TYPHIMURIUM, Strain/Indicator: TA100(NR), Metabolic Activation: NONE, Method: STANDARD PLATE) “inactive; negative”; (Test System: AMES SALMONELLA TYPHIMURIUM, Strain/Indicator: TA100(TN5-1,8-DNP1012), Metabolic Activation: NONE, Method: STANDARD PLATE) “inactive; negative”. In addition, under “Test System: AMES SALMONELLA TYPHIMURIUM, Strain/Indicator: TA100, Metabolic Activation: NONE, Method: STANDARD PLATE”, the mutagenic call was “active; positive”.
As to `CC(=O)OCCC(C)C`, the mutagenic call is, setting by setting: (Test System: AMES SALMONELLA TYPHIMURIUM, Strain/Indicator: TA97, Metabolic Activation: HAMSTER, LIVER, S-9, AROCLOR 1254 (10%), Method: PREINCUBATION) “inactive; negative”; (Test System: AMES SALMONELLA TYPHIMURIUM, Strain/Indicator: TA97, Metabolic Activation: HAMSTER, LIVER, S-9, AROCLOR 1254 (30%), Method: PREINCUBATION) “inactive; negative”; (Test System: AMES SALMONELLA TYPHIMURIUM, Strain/Indicator: TA97, Metabolic Activation: NONE, Method: PREINCUBATION) “inactive; negative”; (Test System: AMES SALMONELLA TYPHIMURIUM, Strain/Indicator: TA97, Metabolic Activation: RAT, LIVER, S-9, AROCLOR 1254 (10%), Method: PREINCUBATION) “inactive; negative”; (Test System: AMES SALMONELLA TYPHIMURIUM, Strain/Indicator: TA97, Metabolic Activation: RAT, LIVER, S-9, AROCLOR 1254 (30%), Method: PREINCUBATION) “inactive; negative”; (Test System: AMES SALMONELLA TYPHIMURIUM, Strain/Indicator: TA98, Metabolic Activation: HAMSTER, LIVER, S-9, AROCLOR 1254 (10%), Method: PREINCUBATION) “inactive; negative”. Also, the mutagenic call by setting is: (Test System: AMES SALMONELLA TYPHIMURIUM, Strain/Indicator: TA98, Metabolic Activation: HAMSTER, LIVER, S-9, AROCLOR 1254 (30%), Method: PREINCUBATION) “inactive; negative”; under setting [1], “inactive; negative”; (Test System: AMES SALMONELLA TYPHIMURIUM, Strain/Indicator: TA98, Metabolic Activation: RAT, LIVER, S-9, AROCLOR 1254 (10%), Method: PREINCUBATION) “inactive; negative”; (Test System: AMES SALMONELLA TYPHIMURIUM, Strain/Indicator: TA98, Metabolic Activation: RAT, LIVER, S-9, AROCLOR 1254 (30%), Method: PREINCUBATION) “inactive; negative”; (Test System: AMES SALMONELLA TYPHIMURIUM, Strain/Indicator: TA100, Metabolic Activation: HAMSTER, LIVER, S-9, AROCLOR 1254 (10%), Method: PREINCUBATION) “inactive; negative”; (Test System: AMES SALMONELLA TYPHIMURIUM, Strain/Indicator: TA100, Metabolic Activation: HAMSTER, LIVER, S-9, AROCLOR 1254 (30%), Method: PREINCUBATION) “inactive; negative”. Also, the mutagenic call reads like this: under setting [3], “inactive; negative”; (Test System: AMES SALMONELLA TYPHIMURIUM, Strain/Indicator: TA100, Metabolic Activation: RAT, LIVER, S-9, AROCLOR 1254 (10 OR 30%), Method: PREINCUBATION) “inactive; negative”; (Test System: AMES SALMONELLA TYPHIMURIUM, Strain/Indicator: TA1535, Metabolic Activation: HAMSTER, LIVER, S-9, AROCLOR 1254 (10%), Method: PREINCUBATION) “inactive; negative”; (Test System: AMES SALMONELLA TYPHIMURIUM, Strain/Indicator: TA1535, Metabolic Activation: HAMSTER, LIVER, S-9, AROCLOR 1254 (30%), Method: PREINCUBATION) “inactive; negative”; under setting [7], “inactive; negative”; (Test System: AMES SALMONELLA TYPHIMURIUM, Strain/Indicator: TA1535, Metabolic Activation: RAT, LIVER, S-9, AROCLOR 1254 (10%), Method: PREINCUBATION) “inactive; negative”. For the same compound, the mutagenic call reads like this: (Test System: AMES SALMONELLA TYPHIMURIUM, Strain/Indicator: TA1535, Metabolic Activation: RAT, LIVER, S-9, AROCLOR 1254 (30%), Method: PREINCUBATION) “inactive; negative”; (Test System: AMES SALMONELLA TYPHIMURIUM, Strain/Indicator: TA1537, Metabolic Activation: HAMSTER, LIVER, S-9, AROCLOR 1254 (30%), Method: PREINCUBATION) “inactive; negative”; under setting [8], “inactive; negative”; (Test System: AMES SALMONELLA TYPHIMURIUM, Strain/Indicator: TA1537, Metabolic Activation: RAT, LIVER, S-9, AROCLOR 1254 (30%), Method: PREINCUBATION) “inactive; negative”.
